How the values were obtained:
H3K27Ac in PC-3 cells = assay: High content microscopy of H3K27Ac in PC-3 cells; assay type: cell-based
p300-BHC [1] = biological target: T1, p300-BHC (Homo sapiens, UniProt Q09472); assay: Thermal shift assay with p300-BHC
[2] = system: H3K27Ac and AR occupancy at the PSA enhancer, LnCaP-FGC cells; assay: ChIP at the PSA enhancer in DHT-stimulated LnCaP-FGC cells; assay type: cell-based; details: DHT 6 h
[3] = system: c-Myc expression in 22Rv1 cells; assay: c-Myc expression in androgen depleted 22Rv1 cells; assay type: cell-based
[4] = system: DHT responsive genes in 22Rv1 cells; assay type: cell-based; details: androgen depleted 22Rv1 cells
[5] = system: PSA expression in 22Rv1 cells; assay: qRT-PCR of PSA expression in androgen depleted 22Rv1 cells; assay type: cell-based; details: absence of androgens, 7 h and 24 h
22Rv1 cells = assay: Proliferation of androgen depleted 22Rv1 cells; assay type: cell-based; details: absence of androgens
p300-HAT = p300-HAT (Homo sapiens, UniProt Q09472); assay: Surface plasmon resonance binding to p300-HAT; details: SPR
[6] = biological target: p300-BHC (bromodomain-HAT-C/H3) domain (Homo sapiens, UniProt Q09472); details: toward p300 and CBP
MYST4 = MYST4 (Homo sapiens, UniProt Q8WYB5); assay: HAT family selectivity, MYST4; details: at 10 µM
H3K9Ac in PC-3 cells = assay: High content microscopy of H3K9Ac in PC-3 cells; details: Homo sapiens, PC-3, 3 h, read-out: EC50, decrease of H3K9Ac
Brain exposure = details: in vivo
GCN5L2 = GCN5L2 (Homo sapiens, UniProt Q92830); assay: HAT family selectivity, GCN5L2; details: at 10 µM
HAT1 = HAT1 (Homo sapiens, UniProt O14929); assay: HAT family selectivity, HAT1; details: at 10 µM
[7] = system: AR+ prostate cancer cell lines; assay: Cell proliferation of prostate cancer cell lines
dopamine transporter = dopamine transporter (Homo sapiens, UniProt Q01959); assay: Non-epigenetic target panel, dopamine transporter binding; details: at 10 µM
LuCaP-77 CR xenograft = assay: LuCaP-77 CR castration resistant prostate cancer xenograft model; assay type: in vivo, SCID male mice; details: 7 days dosing, 3 h post-dosing
p300-BHC [8] = biological target: T1, p300-BHC; assay: AlphaLISA-based peptide substrate binding assay
serotonin transporter = serotonin transporter (Homo sapiens, UniProt P31645); assay: Non-epigenetic target panel, serotonin transporter binding; details: at 10 µM
MYST3 = MYST3 (Homo sapiens, UniProt Q92794); assay: HAT family selectivity, MYST3; details: at 10 µM
TIP60 = TIP60 (Homo sapiens, UniProt Q92993); assay: HAT family selectivity, TIP60; details: at 10 µM
[9] = system: PSA expression in LnCaP-FGC cells; assay: qRT-PCR of DHT-stimulated PSA expression in LnCaP-FGC cells; assay type: cell-based; details: 7 h and 24 h
PCAF = PCAF (Homo sapiens, UniProt Q92831); assay: HAT family selectivity, PCAF; details: at 10 µM

T1 sequence (Q09472 1049-1809 limits assumed): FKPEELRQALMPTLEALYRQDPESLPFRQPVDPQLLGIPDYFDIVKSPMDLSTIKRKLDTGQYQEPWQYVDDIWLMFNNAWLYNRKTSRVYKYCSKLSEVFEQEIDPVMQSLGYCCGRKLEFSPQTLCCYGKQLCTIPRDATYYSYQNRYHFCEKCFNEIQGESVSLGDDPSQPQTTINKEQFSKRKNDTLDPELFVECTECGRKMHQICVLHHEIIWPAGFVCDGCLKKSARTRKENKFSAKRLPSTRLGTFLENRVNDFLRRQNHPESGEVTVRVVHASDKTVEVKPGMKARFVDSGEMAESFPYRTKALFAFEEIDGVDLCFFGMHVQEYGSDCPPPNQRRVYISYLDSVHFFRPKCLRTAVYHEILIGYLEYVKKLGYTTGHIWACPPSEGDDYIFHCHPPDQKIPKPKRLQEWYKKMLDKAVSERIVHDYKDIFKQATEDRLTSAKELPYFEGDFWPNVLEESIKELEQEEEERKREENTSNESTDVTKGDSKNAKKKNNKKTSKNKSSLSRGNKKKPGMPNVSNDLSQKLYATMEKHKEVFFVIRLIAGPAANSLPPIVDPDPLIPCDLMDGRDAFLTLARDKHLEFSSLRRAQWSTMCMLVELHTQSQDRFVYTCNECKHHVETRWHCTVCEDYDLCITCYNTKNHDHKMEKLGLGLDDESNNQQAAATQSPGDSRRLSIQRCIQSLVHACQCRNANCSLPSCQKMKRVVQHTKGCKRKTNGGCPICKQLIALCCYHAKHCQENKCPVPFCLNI
Chain of GCN5L2 (Q92830 whole entry): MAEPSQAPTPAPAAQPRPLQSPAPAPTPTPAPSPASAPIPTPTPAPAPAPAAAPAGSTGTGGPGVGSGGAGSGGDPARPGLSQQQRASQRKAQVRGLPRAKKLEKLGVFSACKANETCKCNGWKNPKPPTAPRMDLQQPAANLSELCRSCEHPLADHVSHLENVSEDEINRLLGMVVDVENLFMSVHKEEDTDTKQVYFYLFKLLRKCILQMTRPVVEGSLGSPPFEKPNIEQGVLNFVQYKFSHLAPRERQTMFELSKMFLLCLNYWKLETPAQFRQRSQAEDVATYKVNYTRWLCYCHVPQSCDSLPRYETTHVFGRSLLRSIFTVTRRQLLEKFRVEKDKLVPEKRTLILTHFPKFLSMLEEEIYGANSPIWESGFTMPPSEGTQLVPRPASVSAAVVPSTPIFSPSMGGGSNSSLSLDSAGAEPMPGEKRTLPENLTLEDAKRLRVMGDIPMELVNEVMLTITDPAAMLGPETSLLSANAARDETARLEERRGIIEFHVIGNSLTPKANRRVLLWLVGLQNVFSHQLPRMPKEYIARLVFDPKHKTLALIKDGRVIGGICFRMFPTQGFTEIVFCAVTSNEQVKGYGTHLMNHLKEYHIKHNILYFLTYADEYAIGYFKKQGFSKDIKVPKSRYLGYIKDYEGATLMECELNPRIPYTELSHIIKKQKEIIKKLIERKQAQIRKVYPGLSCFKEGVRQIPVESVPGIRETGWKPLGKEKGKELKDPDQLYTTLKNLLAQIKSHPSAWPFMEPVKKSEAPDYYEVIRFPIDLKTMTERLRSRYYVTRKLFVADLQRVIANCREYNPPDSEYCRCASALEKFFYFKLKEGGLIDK
Chain of MYST4 (Q8WYB5 whole entry, species assumed): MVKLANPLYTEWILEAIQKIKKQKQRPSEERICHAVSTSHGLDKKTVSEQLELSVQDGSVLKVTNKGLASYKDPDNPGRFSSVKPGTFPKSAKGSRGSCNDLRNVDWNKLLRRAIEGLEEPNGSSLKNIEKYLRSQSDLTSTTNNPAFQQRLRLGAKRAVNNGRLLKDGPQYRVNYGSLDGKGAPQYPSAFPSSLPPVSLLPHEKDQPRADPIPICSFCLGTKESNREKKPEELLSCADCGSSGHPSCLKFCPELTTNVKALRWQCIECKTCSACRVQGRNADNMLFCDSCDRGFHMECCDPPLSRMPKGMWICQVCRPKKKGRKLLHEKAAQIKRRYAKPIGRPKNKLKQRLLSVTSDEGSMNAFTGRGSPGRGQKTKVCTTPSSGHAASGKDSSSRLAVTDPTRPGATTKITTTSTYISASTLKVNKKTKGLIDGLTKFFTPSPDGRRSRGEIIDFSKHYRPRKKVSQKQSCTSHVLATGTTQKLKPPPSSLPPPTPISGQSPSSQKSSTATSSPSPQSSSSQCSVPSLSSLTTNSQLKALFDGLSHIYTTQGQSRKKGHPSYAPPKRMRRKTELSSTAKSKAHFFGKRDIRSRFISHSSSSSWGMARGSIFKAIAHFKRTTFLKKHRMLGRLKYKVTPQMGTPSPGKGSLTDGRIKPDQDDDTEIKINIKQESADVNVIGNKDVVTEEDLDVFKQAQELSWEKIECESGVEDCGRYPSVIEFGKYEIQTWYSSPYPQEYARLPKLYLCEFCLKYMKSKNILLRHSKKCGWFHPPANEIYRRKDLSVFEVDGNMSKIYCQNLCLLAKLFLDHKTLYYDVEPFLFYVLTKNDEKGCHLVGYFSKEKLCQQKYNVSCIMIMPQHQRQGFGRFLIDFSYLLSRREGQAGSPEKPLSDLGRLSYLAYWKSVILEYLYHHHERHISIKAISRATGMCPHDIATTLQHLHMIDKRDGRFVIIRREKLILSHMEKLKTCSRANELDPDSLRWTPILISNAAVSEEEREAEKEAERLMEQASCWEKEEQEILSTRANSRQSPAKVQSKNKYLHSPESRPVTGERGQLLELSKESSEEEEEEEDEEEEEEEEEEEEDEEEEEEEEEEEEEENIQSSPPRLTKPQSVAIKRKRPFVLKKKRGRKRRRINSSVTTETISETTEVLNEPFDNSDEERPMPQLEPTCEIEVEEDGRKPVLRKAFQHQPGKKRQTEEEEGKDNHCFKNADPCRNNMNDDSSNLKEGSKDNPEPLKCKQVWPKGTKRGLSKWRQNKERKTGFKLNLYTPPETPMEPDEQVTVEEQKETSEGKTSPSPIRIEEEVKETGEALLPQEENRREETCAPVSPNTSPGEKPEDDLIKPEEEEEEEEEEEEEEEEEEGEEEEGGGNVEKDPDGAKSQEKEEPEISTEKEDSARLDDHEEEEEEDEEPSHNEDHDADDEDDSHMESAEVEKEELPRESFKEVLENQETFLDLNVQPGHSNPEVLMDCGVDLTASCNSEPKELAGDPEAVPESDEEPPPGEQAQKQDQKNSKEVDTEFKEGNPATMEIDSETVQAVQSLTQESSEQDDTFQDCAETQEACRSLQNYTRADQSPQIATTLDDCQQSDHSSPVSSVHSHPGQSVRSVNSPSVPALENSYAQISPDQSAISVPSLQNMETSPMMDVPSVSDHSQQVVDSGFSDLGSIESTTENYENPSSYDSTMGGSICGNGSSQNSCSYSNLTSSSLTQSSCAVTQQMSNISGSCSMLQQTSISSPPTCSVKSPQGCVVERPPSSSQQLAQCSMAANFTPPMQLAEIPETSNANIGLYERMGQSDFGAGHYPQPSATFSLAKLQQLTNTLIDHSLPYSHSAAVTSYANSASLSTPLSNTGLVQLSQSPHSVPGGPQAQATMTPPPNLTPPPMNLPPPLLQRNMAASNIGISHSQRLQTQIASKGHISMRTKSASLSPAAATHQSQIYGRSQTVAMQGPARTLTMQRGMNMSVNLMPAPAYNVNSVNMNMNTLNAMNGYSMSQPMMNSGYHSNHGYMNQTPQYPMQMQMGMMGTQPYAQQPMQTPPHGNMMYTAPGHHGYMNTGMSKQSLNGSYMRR
Chain of HAT1 (O14929 whole entry): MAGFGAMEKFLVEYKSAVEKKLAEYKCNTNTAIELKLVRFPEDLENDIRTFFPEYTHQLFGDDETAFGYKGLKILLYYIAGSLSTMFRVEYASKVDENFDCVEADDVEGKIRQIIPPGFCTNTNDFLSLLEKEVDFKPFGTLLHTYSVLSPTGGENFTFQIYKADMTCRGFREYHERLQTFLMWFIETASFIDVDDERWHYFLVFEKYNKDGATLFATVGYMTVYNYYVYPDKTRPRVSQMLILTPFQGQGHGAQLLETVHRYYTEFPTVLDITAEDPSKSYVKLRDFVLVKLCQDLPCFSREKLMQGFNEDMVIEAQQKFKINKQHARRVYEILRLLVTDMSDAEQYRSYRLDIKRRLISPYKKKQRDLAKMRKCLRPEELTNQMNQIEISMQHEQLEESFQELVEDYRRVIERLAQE
Chain of dopamine transporter (Q01959 whole entry): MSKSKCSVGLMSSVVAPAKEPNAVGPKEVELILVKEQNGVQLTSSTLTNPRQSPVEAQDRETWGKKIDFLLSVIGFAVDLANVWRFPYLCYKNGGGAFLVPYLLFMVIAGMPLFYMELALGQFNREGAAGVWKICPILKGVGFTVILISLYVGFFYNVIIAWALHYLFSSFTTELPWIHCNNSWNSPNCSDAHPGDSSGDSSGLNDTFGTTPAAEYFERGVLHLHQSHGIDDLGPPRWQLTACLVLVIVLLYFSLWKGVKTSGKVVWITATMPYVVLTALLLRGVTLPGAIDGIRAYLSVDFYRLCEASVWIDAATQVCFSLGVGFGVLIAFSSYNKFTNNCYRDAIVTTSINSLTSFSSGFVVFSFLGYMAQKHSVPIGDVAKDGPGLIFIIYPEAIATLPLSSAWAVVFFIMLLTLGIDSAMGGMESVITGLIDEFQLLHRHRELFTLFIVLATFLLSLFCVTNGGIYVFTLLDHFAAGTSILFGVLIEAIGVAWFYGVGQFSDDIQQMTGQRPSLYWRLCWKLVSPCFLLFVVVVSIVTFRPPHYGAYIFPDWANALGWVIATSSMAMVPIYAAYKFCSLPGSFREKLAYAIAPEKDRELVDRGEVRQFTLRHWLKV
Chain of p300-BHC (bromodomain-HAT-C/H3) domain (Q09472 1049-1809 limits assumed): as the sequence (Q09472 1049-1809 limits assumed) above

CC1=NN(c2ccc(C(=O)O)cc2)C(=O)/C1=C\c1ccc(-c2cc(C)c(C)cc2[N+](=O)[O-])o1 [Compound C646, reference compound]
effect on H3K27Ac, in words (H3K27Ac in PC-3 cells): only modest inhibition

CC(=O)N[C@@H](CCCCNC(=O)CSCCNC(=O)CCNC(=O)[C@H](O)C(C)(C)COP(=O)(O)OP(=O)(O)OC[C@H]1O[C@@H](n2cnc3c(N)ncnc32)[C@H](O)[C@@H]1OP(=O)(O)O)C(N)=O [Lys-CoA]
increase of thermostability of p300-BHC (p300-BHC [1]): 5.8 °C

CNC(=O)c1ccc(N2C(=S)N(c3ccc(C#N)c(C(F)(F)F)c3)C(=O)C2(C)C)cc1F [enzalutamide, reference compound]
AR occupancy at the PSA enhancer [2]: decreased AR occupancy
H3K27Ac at the PSA enhancer [2]: reduced H3K27Ac binding
c-Myc expression [3]: no effect
effect on DHT responsive genes, in words [4]: inactive
PSA expression [5]: inactive
inhibition of proliferation (22Rv1 cells): inactive

CNC(=O)Nc1ccc2c(c1)[C@@]1(CC2)OC(=O)N(CC(=O)N(Cc2ccc(F)cc2)[C@@H](C)C(F)(F)F)C1=O [Compound A-486]
fold weaker binding than A-485 (p300-HAT): ~ 1,000 fold
effect on H3K27Ac, in words (H3K27Ac in PC-3 cells): inactive
PSA expression [5]: inactive
inhibition of proliferation (22Rv1 cells): inactive
fold less potent than A-485 [6]: ~ 1000 fold

CNC(=O)Nc1ccc2c(c1)CC[C@@]21OC(=O)N(CC(=O)N(Cc2ccc(F)cc2)[C@@H](C)C(F)(F)F)C1=O [Compound A-485]
inhibition of MYST4 activity (MYST4): did not inhibit
EC50 (H3K9Ac in PC-3 cells): > 10 µM
brain exposure (Brain exposure): does not achieve significant brain exposure
inhibition of GCN5L2 activity (GCN5L2): did not inhibit
inhibition of HAT1 activity (HAT1): did not inhibit
H3K27Ac at the PSA enhancer [2]: reduced H3K27Ac binding
inhibition of proliferation [7]: potent inhibition of proliferation
c-Myc expression [3]: robustly decreased
PSA expression [5]: decreased PSA expression
binding to dopamine transporter (dopamine transporter): > 90%
inhibition of proliferation (22Rv1 cells): inhibited proliferation
tumor mRNA levels of SLC45A3 and c-Myc (LuCaP-77 CR xenograft): decrease
competition with peptide substrate binding (p300-BHC [8]): not competitive with the peptide substrate
binding to serotonin transporter (serotonin transporter): > 90%
inhibition of MYST3 activity (MYST3): did not inhibit
inhibition of TIP60 activity (TIP60): did not inhibit
DHT-stimulated PSA expression [9]: attenuated DHT-stimulated PSA expression more potently than the AR antagonist enzalutamide
inhibition of PCAF activity (PCAF): did not inhibit

From PMC6050590 (Nature, 2017)
